Legend:
[1] = test system: RAW264.7; assay: Cytotoxicity against mouse RAW264.7 cells assessed as reduction in cell viability at 10 uM incubated for 24 hrs by CCK-8 assay; assay type: toxicity, cell-based; details: raw264.7, 24 h
[2] = test system: RAW264.7; assay: Inhibition of IL-1beta (unknown origin) in mouse RAW264.7 relative to control; assay type: cell-based; details: dose or concentration not given here
[3] = test system: RAW264.7; assay: Inhibition of IL-6 (unknown origin) in mouse RAW264.7 relative to control; assay type: cell-based; details: dose or concentration not given here

Structure (SMILES)	Activity [1]	inhibition [2]	inhibition [3]
Cc1ccccc1-c1nc(C(=O)N(C)/C=C\c2ccccc2)nn1-c1ccccc1	Non-toxic	–	–
CN(/C=C\c1ccccc1)C(=O)c1nc(-c2ccccc2Cl)n(-c2ccccc2)n1	Non-toxic	–	–
CCCc1nc(C(=O)N(C)/C=C\c2ccccc2)nn1-c1ccccc1	Non-toxic	–	–
CN(/C=C\c1ccccc1)C(=O)c1nc(-c2cccc3ccccc23)n(-c2ccccc2)n1	Non-toxic	74%	86%
CN(/C=C\c1ccccc1)C(=O)c1nc(-c2cccs2)n(-c2ccccc2)n1	Non-toxic	–	–
CN(/C=C\c1ccccc1)C(=O)c1nc(CC(C)(C)C)n(-c2ccccc2)n1	Non-toxic	–	–
CCc1nc(C(=O)N(C)/C=C\c2ccccc2)nn1-c1ccccc1	Non-toxic	–	–
CN(/C=C\c1ccccc1)C(=O)c1nc(-c2ccc(C(F)(F)F)cc2)n(-c2ccccc2)n1	Non-toxic	–	–
CN(/C=C\c1ccccc1)C(=O)c1nc(-c2ccco2)n(-c2ccccc2)n1	Non-toxic	–	–
Cc1nc(C(=O)N(C)/C=C\c2ccccc2)nn1-c1ccccc1	Non-toxic	–	–
Cc1cccc(-c2nc(C(=O)N(C)/C=C\c3ccccc3)nn2-c2ccccc2)c1	Non-toxic	–	–
CN(/C=C\c1ccccc1)C(=O)c1nc(-c2cccc(Cl)c2)n(-c2ccccc2)n1	Non-toxic	–	–
